Reference: patent US8268814B2, “Substituted sulfonamide compounds” (Gruenenthal GmbH, priority 2008, dated 2012)

Experiments:
[1] = target: T1, B1R receptor of the rat (rB1R) (Rattus norvegicus, UniProt P97583); test: Functional FLIPR Ca2+ assay on the bradykinin 1 receptor, rat (rB1R CHO K1 cells); assay type: cell-based; settings: test substance 10 μM; CHO K1 cells transfected with rat B1R gene; agonist Des-Arg9-bradykinin at EC80; % inhibition compared with maximum achievable inhibition; read-out: B1R antagonism, rat [10 μM] % inhibition
T1 construct: expressed in transfected cells; host or cells: CHO K1 cells (Chinese hamster ovary), stably transfected
T1 sequence (P97583 1-337): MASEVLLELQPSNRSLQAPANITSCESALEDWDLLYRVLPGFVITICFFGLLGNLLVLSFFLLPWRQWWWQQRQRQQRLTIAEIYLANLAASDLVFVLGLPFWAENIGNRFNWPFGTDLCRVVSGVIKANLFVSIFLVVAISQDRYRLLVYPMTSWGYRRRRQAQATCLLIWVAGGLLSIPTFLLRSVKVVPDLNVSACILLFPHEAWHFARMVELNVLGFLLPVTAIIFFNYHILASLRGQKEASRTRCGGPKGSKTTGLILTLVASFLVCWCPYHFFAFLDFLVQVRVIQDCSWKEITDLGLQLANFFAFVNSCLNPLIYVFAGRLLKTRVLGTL
Protocol: (§1) The agonistic or antagonistic action of substances can be quantified on the bradykinin 1 receptor (B1R) of the human and rat species with ectopically expressing cell lines (CHO K1 cells) and with the aid of a Ca^2+-sensitive dyestuff (Fluo-4) in a fluorescent imaging plate reader (FLIPR). The figure in % activation is based on the Ca^2+ signal after addition of Lys-Des-Arg^9-bradykinin (0.5 nM) or Des-Arg^9-bradykinin (100 nM). Antagonists lead to a suppression of the Ca^2+ inflow after addition of the agonist. % inhibition compared with the maximum achievable inhibition is stated.
(§2) The agonistic or antagonistic action of substances can be determined on the bradykinin 1 receptor (B1R) of the human and rat species with the following assay. In accordance with this assay, the Ca^2+ inflow through the channel is quantified with the aid of a Ca^2+-sensitive dyestuff (type Fluo-4, Molecular Probes Europe BV, Leiden, Holland) in a fluorescent imaging plate reader (FLIPR, Molecular Devices, Sunnyvale, USA).
(§3) Chinese hamster ovary cells (CHO K1 cells) transfected stably with the human B1R gene (hB1R cells) or the B1R gene of the rat (rB1R cells) are used. For functional studies, these cells are plated out on black 96-well plates with a clear base (BD Biosciences, Heidelberg, Germany or Greiner, Frickenhausen, Germany) in a density of 20,000-35,000 cells/well. The cells are left overnight at 37° C. and 5% CO2 in culture medium (hB1R cells: Nutrient Mixture Ham's F12, Gibco Invitrogen GmbH, Karlsruhe, Germany or DMEM, Sigma-Aldrich, Taufkirchen, Germany; rB1R cells: D-MEM/F12, Gibco Invitrogen GmbH, Karlsruhe, Germany) with 10 vol. % FBS (foetal bovine serum, Gibco Invitrogen GmbH, Karlsruhe, Germany or PAN Biotech GmbH, Aidenbach, Germany). On the following day, the cells are loaded for 60 min at 37° C. with 2.13 μM Fluo-4 (Molecular Probes Europe BV, Leiden, Holland) in HBSS buffer (Hank's buffered saline solution, Gibco Invitrogen GmbH, Karlsruhe, Germany) with 2.5 mM probenecid (Sigma-Aldrich, Taufkirchen, Germany) and 10 mM HEPES (Sigma-Aldrich, Taufkirchen, Germany). The plates are then washed 2× with HBSS buffer, and HBSS buffer which additionally contains 0.1% BSA (bovine serum albumin; Sigma-Aldrich, Taufkirchen, Germany), 5.6 mM glucose and 0.05% gelatine (Merck KgaA, Darmstadt, Germany) is added. After a further incubation of 20 minutes at room temperature, the plates are inserted into the FLIPR for the Ca^2+ measurement.
(§4) Alternatively, the plates are washed with buffer A (15 mM HEPES, 80 mM NaCl, 5 mM KCl, 1.2 mM CaCl2, 0.7 mM MgSO4, 2 g/l glucose, 2.5 mM probenecid), buffer A is added and the plates are loaded with 2.5 μM Fluo-4 and 0.025% Pluronic F127 (Sigma-Aldrich, Taufkirchen, Germany). Thereafter, the cells are washed 2× with buffer A and incubated for 30 minutes with buffer A, which additionally contains 0.05% BSA and 0.05% gelatine, at room temperature and thereafter inserted into the FLIPR for the Ca^2+ measurement. The Ca^2+-dependent fluorescence is measured here before and after addition of substances (λex=488 nm, λem=540 nm). Quantification is by measurement of the highest fluorescence intensity (FC, fluorescence counts) over time.
(§5) The FLIPR protocol consists of 2 additions of substance. Test substances (10 μM) are first pipetted on to the cells and the Ca^2+ inflow is compared with the control (hB1R: Lys-Des-Arg^9-bradykinin >=50 nM; rB1R: Des-Arg^9-bradykinin 10 μM). This gives the figure in % activation based on the Ca^2+ signal after addition of Lys-Des-Arg^9-bradykinin (>=50 nM) or Des-Arg^9-bradykinin (10 μM). After incubation for 10-20 minutes, Lys-Des-Arg^9-bradykinin (hB1R) or Des-Arg^9-bradykinin (rB1R) in the concentration of the EC80 is applied and the inflow of Ca^2+ is likewise determined. Antagonists lead to a suppression of the Ca^2+ inflow. % inhibition compared with the maximum achievable inhibition is calculated. In order to determine the IC50 value, the substances are added in various concentrations. […]

[2] = target: T2, human B1R receptor (hB1R) (Homo sapiens, UniProt P46663); test: Functional FLIPR Ca2+ assay on the bradykinin 1 receptor, human (hB1R CHO K1 cells); assay type: cell-based; settings: test substance 10 μM; CHO K1 cells transfected with human B1R gene; agonist Lys-Des-Arg9-bradykinin at EC80; % inhibition compared with maximum achievable inhibition; read-out: B1R antagonism, human (10 μM] % inhibition
T2 construct: expressed in transfected cells; host or cells: CHO K1 cells (Chinese hamster ovary), stably transfected
T2 sequence (P46663 1-353): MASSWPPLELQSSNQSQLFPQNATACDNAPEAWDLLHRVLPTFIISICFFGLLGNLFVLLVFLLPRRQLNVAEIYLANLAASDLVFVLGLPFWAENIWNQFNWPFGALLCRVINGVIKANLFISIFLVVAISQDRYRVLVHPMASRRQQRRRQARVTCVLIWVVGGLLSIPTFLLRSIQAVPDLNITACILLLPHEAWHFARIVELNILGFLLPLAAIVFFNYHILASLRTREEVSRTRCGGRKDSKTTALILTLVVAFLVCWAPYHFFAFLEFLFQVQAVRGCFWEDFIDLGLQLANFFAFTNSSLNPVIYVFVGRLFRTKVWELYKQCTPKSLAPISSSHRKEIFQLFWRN
Protocol: as §1, §2, §3, §4, §5

COc1cc(C)c(S(=O)(=O)N2CCCCC2CCC(=O)N2CCc3nc(-c4ccncc4)sc3C2)c(C)c1 (stereo not drawn) [Example 52, 3-(1-(4-methoxy-2,6-dimethylphenylsulfonyl)piperidin-2-yl)-1-(2-(pyridin-4-yl)-6,7-dihydrothiazolo[5,4-c]pyridin-5(4H)-yl)propan-1-one]
inhibition at 10 µM [1]: 95%
inhibition at 10 µM [2]: 76%

COc1cc(C)c(S(=O)(=O)N2CCC[C@H]2COCC(=O)N2CCc3sc(CN4CCCCC4)cc3C2)c(C)c1 [Example 63, 2-[[(2S)-1-[(4-methoxy-2,6-dimethyl-phenyl)sulfonyl]-pyrrolidin-2-yl]-methoxy]-1-[2-(piperidin-1-yl-methyl)-4,5,6,7-tetrahydro-thieno[3,2-c]pyridin-5-yl]-ethanone]
inhibition at 10 µM [1]: 106%
inhibition at 10 µM [2]: 99%

O=C(C[C@@H](NS(=O)(=O)c1ccc2ccccc2c1)c1ccccc1)N1CCc2sccc2C1c1ccc(F)cc1 (stereo partly drawn) [Example 21, N-((1R)-3-(4-(4-fluorophenyl)-6,7-dihydrothieno[3,2-c]pyridin-5(4H)-yl)-3-oxo-1-phenylpropyl)naphthalene-2-sulfonamide]
inhibition at 10 µM [1]: 70%
inhibition at 10 µM [2]: 34%

O=C(CC1CCCCN1S(=O)(=O)c1cccc(C(F)(F)F)c1)N1CCc2nc(-c3ccncc3)sc2C1 (stereo not drawn) [Example 37, 1-(2-(pyridin-4-yl)-6,7-dihydrothiazolo[5,4-c]pyridin-5(4H)-yl)-2-(1-(3-(trifluoromethyl)phenylsulfonyl)piperidin-2-yl)ethan-1-one]
inhibition at 10 µM [1]: 97%
inhibition at 10 µM [2]: 28%

O=C(CC1CCCCN1S(=O)(=O)c1cccc(C(F)(F)F)c1)N1CCc2onc(CN3CCCCC3)c2C1 (stereo not drawn) [Example 05, 1-(3-(piperidin-1-ylmethyl)-6,7-dihydroisoxazolo[4,5-c]pyridin-5(4H)-yl)-2-(1-(3-(trifluoromethyl)phenylsulfonyl)piperidin-2-yl)ethanone]
inhibition at 10 µM [1]: 27%
inhibition at 10 µM [2]: 48%

COc1cc(C)c(S(=O)(=O)N2CCCCC2COCC(=O)N2CCc3sccc3C2c2cccc(C)c2)c(C)c1 (stereo not drawn) [Example 08, 2-((1-(4-methoxy-2,6-dimethylphenylsulfonyl)piperidin-2-yl)methoxy)-1-(4-m-tolyl-6,7-dihydrothieno[3,2-c]pyridin-5(4H)-yl)ethanone]
inhibition at 10 µM [1]: 106%
inhibition at 10 µM [2]: 48%

O=C(CC1CCCCN1S(=O)(=O)c1cccc(C(F)(F)F)c1)N1CCc2sccc2C1c1ccncc1 (stereo not drawn) [Example 54, 1-(4-pyridin-4-yl-4,5,6,7-tetrahydro-thieno[3,2-c]pyridin-5-yl)-2-[1-[[3-(trifluoromethyl)phenyl]sulfonyl]-piperidin-2-yl]-ethanone]
inhibition at 10 µM [1]: 101%
inhibition at 10 µM [2]: 16%

O=C(C[C@@H](NS(=O)(=O)c1ccc2ccccc2c1)c1ccccc1)N1CCc2sc(CN3CCCCC3)cc2C1 [Example 26, (R)—N-(3-Oxo-1-phenyl-3-(2-(piperidin-1-ylmethyl)-6,7-dihydrothieno[3,2-c]pyridin-5(4H)-yl)propyl)naphthalene-2-sulfonamide]
inhibition at 10 µM [1]: 101%
inhibition at 10 µM [2]: 97%

COc1cc(C)c(S(=O)(=O)N2CCCC[C@H]2COCC(=O)N2CCc3nc(CN4CCCCC4)sc3C2)c(C)c1 [Example 58, 2-[[(2S)-1-[(4-Methoxy-2,6-dimethyl-phenyl)sulfonyl]-piperidin-2-yl]-methoxy]-1-[2-(piperidin-1-yl-methyl)-4,5,6,7-tetrahydro-thiazolo[5,4-c]pyridin-5-yl]-ethanone]
inhibition at 10 µM [1]: 103%
inhibition at 10 µM [2]: 100%

COc1cc(C)c(S(=O)(=O)N2CCCCC2COCC(=O)N2CCc3onc(C(=O)N4CCCCC4)c3C2)c(C)c1 (stereo not drawn) [Example 14, 2-((1-(4-methoxy-2,6-dimethylphenylsulfonyl)piperidin-2-yl)methoxy)-1-(3-(piperidin-1-carbonyl)-6,7-dihydroisoxazolo[4,5-c]pyridin-5(4H)-yl)ethanone]
inhibition at 10 µM [1]: 99%
inhibition at 10 µM [2]: 85%

COc1cc(C)c(S(=O)(=O)N2CCCCC2CCCC(=O)N2CCc3nc(-c4ccncc4)sc3C2)c(C)c1 (stereo not drawn) [Example 53, 4-(1-(4-methoxy-2,6-dimethylphenylsulfonyl)piperidin-2-yl)-1-(2-(pyridin-4-yl)-6,7-dihydrothiazolo[5,4-c]pyridin-5(4H)-yl)butan-1-one]
inhibition at 10 µM [1]: 98%
inhibition at 10 µM [2]: 96%

Cc1cc(S(=O)(=O)N2CCCCC2CCC(=O)N2CCc3onc(CN4CCCCC4)c3C2)c(C)cc1Cl (stereo not drawn) [Example 06, 3-(1-(4-chloro-2,5-dimethylphenylsulfonyl)piperidin-2-yl)-1-(3-(piperidin-1-ylmethyl)-6,7-dihydroisoxazolo[4,5-c]pyridin-5(4H)-yl)propan-1-one]
inhibition at 10 µM [1]: 57%
inhibition at 10 µM [2]: 93%

Cc1cccc(Cl)c1S(=O)(=O)N(CCOCC(=O)N1CCc2sc(CN3CCC3)cc2C1)C1CC1 [Example 56, N-[2-[2-[2-(Azetidin-1-yl-methyl)-4,5,6,7-tetrahydro-thieno[3,2-c]pyridin-5-yl]-2-oxo-ethoxy]-ethyl]-2-chloro-N-cyclopropyl-6-methyl-benzenesulfonic acid amide]
inhibition at 10 µM [1]: 105%
inhibition at 10 µM [2]: 100%

O=C(CC1CCCCN1S(=O)(=O)c1cccc(C(F)(F)F)c1)N1CCc2sccc2C1c1ccc(F)cc1 (stereo not drawn) [Example 19, 1-(4-(4-fluorophenyl)-6,7-dihydrothieno[3,2-c]pyridin-5(4H)-yl)-2-(1-(3-(trifluoromethyl)phenylsulfonyl)piperidin-2-yl)ethanone]
inhibition at 10 µM [1]: 83%
inhibition at 10 µM [2]: 35%

COc1cc(C)c(S(=O)(=O)N2CCCCC2CCC(=O)N2CCc3onc(-c4ccncc4)c3C2)c(C)c1 (stereo not drawn) [Example 01, 3-(1-(4-Methoxy-2,6-dimethylphenylsulfonyl)piperidin-2-yl)-1-(3-(pyridin-4-yl)-6,7-dihydroisoxazolo[4,5-c]pyridin-5(4H)-yl)propan-1-one]
inhibition at 10 µM [1]: 98%
inhibition at 10 µM [2]: 46%
